Laboratory results as given in patent publication US6479435B1, “Diaryl ethers and processes for their preparation and herbicidal and desiccant compositions containing them” (ISK Americas Incorporated, priority 1997, dated 2002).

Assays:
Type in all cases: in vivo
[1] = system: upland rice (Oryza sp., var.Tebonnet, RICE); assay: Post-emerge greenhouse test, crop damage rating; conditions: 14 days after application, scale 0-100
How it was run: (§1)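 Compounds in acetone with 0.25% v/v non-ionic surfactant were track-sprayed at 187 l/ha over plants at the 2-3 leaf stage, at 63 to 1000 g ai/ha. Pots were bottom-watered. Injury was scored visually 14 days later on a 0-100 scale, where 0 is no damage and 100 is complete plant death.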

[2] = system: field corn (Zea mays L., var. Dekalb 535, CORN); assay: Post-emerge greenhouse test, crop damage rating; conditions: 14 days after application, scale 0-100
How it was run: as §1

[3] = system: soybean (Glycine max L., var. Pella 86, SOY); assay: Pre-emerge greenhouse test, crop damage rating; parameters: key to SOY crop damage rating: 0 = no damage, 100 = complete death of all plants; conditions: 14 days after application, rating scale 0-100
How it was run: (§2)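 Seeds sown in sandy loam mix one day before track-sprayer application of compounds in acetone at 125–1000 g ai/ha (187 l/ha), then surface-watered to incorporate and bottom-watered. Visual rating 14 days after application on a 0–100 scale (0 = no damage, 100 = all plants dead).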

[4] = system: common ragweed (Ambrosia artemisiifolia L., AMBEL); assay: Post-emerge greenhouse herbicide test, phytotoxicity rating; conditions: 14 days after application, scale 0-100
How it was run: as §1

[5] = system: upland rice (Oryza sp., var.Tebonnet, RICE); assay: Pre-emerge greenhouse test, crop damage rating; conditions: 14 days after application, rating scale 0-100
How it was run: as §2

[6] = system: field corn (Zea mays L., var. Dekalb 535, CORN); assay: Pre-emerge greenhouse test, crop damage rating; conditions: 14 days after application, rating scale 0-100
How it was run: as §2

[7] = system: soybean (Glycine max L., var. Pella 86, SOY); assay: Post-emerge greenhouse test, crop damage rating; parameters: key to crop damage rating SOY: 0-100 scale: 0 = no damage, 100 = complete death of all plants; conditions: 14 days after application, scale 0-100
How it was run: as §1

[8] = system: ivyleaf morningglory (Ipomoea hederacea, IPOHE); assay: Post-emerge greenhouse herbicide test, phytotoxicity rating; conditions: 14 days after application, scale 0-100
How it was run: as §1

[9] = system: barnyardgrass (Echinochloa crusgalli, ECHCG); assay: as above; conditions: 14 days after application, scale 0-100
How it was run: as §1

[10] = system: redroot pigweed (Amaranthus retroflexus, AMARE); assay: as above; conditions: 14 days after application, scale 0-100
How it was run: as §1

[11] = system: lambsquarters (Chenopodium album, CHEAL); assay: as above; conditions: 14 days after application, scale 0-100
How it was run: as §1

[12] = system: sicklepod (Cassia obtusifolia, CASOB); assay: as above; conditions: 14 days after application, scale 0-100
How it was run: as §1

[13] = system: velvetleaf (Abutilon theophrasti, ABUTH); assay: as above; conditions: 14 days after application, scale 0-100
How it was run: as §1

[14] = system: large crabgrass (Digitaria sanguinalis, DIGSA); assay: as above; conditions: 14 days after application, scale 0-100
How it was run: as §1

[15] = system: Johnsongrass (Sorghum halepense, SORHA); assay: as above; conditions: 14 days after application, scale 0-100
How it was run: as §1

[16] = system: green foxtail (Setaria viridis, SETVI); assay: as above; conditions: 14 days after application, scale 0-100
How it was run: as §1

[17] = system: ivyleaf morningglory (Ipomoea hederacea, IPOHE); assay: Pre-emerge greenhouse herbicide test, phytotoxicity rating; conditions: 14 days after application, rating scale 0-100
How it was run: as §2

[18] = system: barnyardgrass (Echinochloa crusgalli, ECHCG); assay: as above; conditions: 14 days after application, rating scale 0-100
How it was run: as §2

[19] = system: common ragweed (Ambrosia artemisiifolia L., AMBEL); assay: as above; conditions: 14 days after application, rating scale 0-100
How it was run: as §2

[20] = system: redroot pigweed (Amaranthus retroflexus, AMARE); assay: as above; conditions: 14 days after application, rating scale 0-100
How it was run: as §2

[21] = system: lambsquarters (Chenopodium album, CHEAL); assay: as above; conditions: 14 days after application, rating scale 0-100
How it was run: as §2

[22] = system: sicklepod (Cassia obtusifolia, CASOB); assay: as above; conditions: 14 days after application, rating scale 0-100
How it was run: as §2

[23] = system: velvetleaf (Abutilon theophrasti, ABUTH); assay: as above; conditions: 14 days after application, rating scale 0-100
How it was run: as §2

[24] = system: large crabgrass (Digitaria sanguinalis, DIGSA); assay: as above; conditions: 14 days after application, rating scale 0-100
How it was run: as §2

[25] = system: Johnsongrass (Sorghum halepense, SORHA); assay: as above; conditions: 14 days after application, rating scale 0-100
How it was run: as §2

[26] = system: green foxtail (Setaria viridis, SETVI); assay: as above; conditions: 14 days after application, rating scale 0-100
How it was run: as §2

COc1nc(OC)nc(Oc2cc(-n3c(=O)n4n(c3=S)CCCC4)c(F)cc2Cl)n1 [Compound 8-34]
95: phytotoxicity rating AMBEL ([4]; rate 500 g ai/ha) | phytotoxicity rating CHEAL ([11]; rate 63 g ai/ha) | phytotoxicity rating ABUTH ([13]; rate 63 g ai/ha)
0: crop damage rating RICE ([1]; rate 63 g ai/ha) | SOY crop damage rating ([3]; Rate 500 g al/ha) | CORN crop damage rating ([6]; Rate 125 g al/ha) | phytotoxicity rating ECHCG ([9]; rate 500 g ai/ha) | phytotoxicity rating DIGSA ([14]; rate 63 g ai/ha) | phytotoxicity rating SORHA ([15]; rate 63 g ai/ha) | IPOHE phytotoxicity rating ([17]; Rate 125 g al/ha) | ECHCG phytotoxicity rating ([18]; Rate 125 g al/ha) | CASOB phytotoxicity rating ([22]; Rate 125 g al/ha)
99: SETVI phytotoxicity rating ([26]; Rate 500 g al/ha)
80: IPOHE phytotoxicity rating ([17]; Rate 500 g al/ha) | DIGSA phytotoxicity rating ([24]; Rate 500 g al/ha) | SORHA phytotoxicity rating ([25]; Rate 500 g al/ha) | SETVI phytotoxicity rating ([26]; Rate 125 g al/ha)
90: crop damage rating SOY ([7]; rate 500 g ai/ha)
10: SOY crop damage rating ([3]; Rate 125 g al/ha) | phytotoxicity rating ECHCG ([9]; rate 63 g ai/ha) | DIGSA phytotoxicity rating ([24]; Rate 125 g al/ha)
50: phytotoxicity rating AMBEL ([4]; rate 63 g ai/ha) | RICE crop damage rating ([5]; Rate 500 g al/ha) | crop damage rating SOY ([7]; rate 63 g ai/ha) | phytotoxicity rating AMARE ([10]; rate 63 g ai/ha) | phytotoxicity rating SORHA ([15]; rate 500 g ai/ha)
15: crop damage rating CORN ([2]; rate 500 g ai/ha)
65: phytotoxicity rating SETVI ([16]; rate 500 g ai/ha)
5: crop damage rating CORN ([2]; rate 63 g ai/ha) | CORN crop damage rating ([6]; Rate 500 g al/ha)
100: phytotoxicity rating IPOHE ([8]; rate 63 g ai/ha) | phytotoxicity rating IPOHE ([8]; rate 500 g ai/ha) | phytotoxicity rating AMARE ([10]; rate 500 g ai/ha) | phytotoxicity rating CHEAL ([11]; rate 500 g ai/ha) | phytotoxicity rating CASOB ([12]; rate 500 g ai/ha) | phytotoxicity rating ABUTH ([13]; rate 500 g ai/ha) | AMBEL phytotoxicity rating ([19]; Rate 500 g al/ha) | AMARE phytotoxicity rating ([20]; Rate 125 g al/ha) | AMARE phytotoxicity rating ([20]; Rate 500 g al/ha) | CHEAL phytotoxicity rating ([21]; Rate 125 g al/ha) | CHEAL phytotoxicity rating ([21]; Rate 500 g al/ha) | ABUTH phytotoxicity rating ([23]; Rate 125 g al/ha) | ABUTH phytotoxicity rating ([23]; Rate 500 g al/ha)
40: crop damage rating RICE ([1]; rate 500 g ai/ha) | phytotoxicity rating DIGSA ([14]; rate 500 g ai/ha) | ECHCG phytotoxicity rating ([18]; Rate 500 g al/ha) | AMBEL phytotoxicity rating ([19]; Rate 125 g al/ha) | CASOB phytotoxicity rating ([22]; Rate 500 g al/ha)
30: phytotoxicity rating CASOB ([12]; rate 63 g ai/ha)
20: RICE crop damage rating ([5]; Rate 125 g al/ha) | phytotoxicity rating SETVI ([16]; rate 63 g ai/ha) | SORHA phytotoxicity rating ([25]; Rate 125 g al/ha)

CC(C)S(=O)(=O)c1cccnc1Oc1cc(-n2c(=O)n3n(c2=S)CCCC3)c(F)cc1Cl [Compound 8-37]
50: SOY crop damage rating ([3]; Rate 125 g al/ha) | phytotoxicity rating SORHA ([15]; rate 500 g ai/ha)
10: RICE crop damage rating ([5]; Rate 125 g al/ha) | phytotoxicity rating ECHCG ([9]; rate 500 g ai/ha)
35: crop damage rating RICE ([1]; rate 500 g ai/ha)
60: phytotoxicity rating AMBEL ([4]; rate 500 g ai/ha)
95: phytotoxicity rating IPOHE ([8]; rate 63 g ai/ha) | phytotoxicity rating AMARE ([10]; rate 500 g ai/ha) | phytotoxicity rating CASOB ([12]; rate 500 g ai/ha)
80: SOY crop damage rating ([3]; Rate 500 g al/ha) | RICE crop damage rating ([5]; Rate 500 g al/ha) | phytotoxicity rating IPOHE ([8]; rate 500 g ai/ha) | CASOB phytotoxicity rating ([22]; Rate 500 g al/ha) | DIGSA phytotoxicity rating ([24]; Rate 125 g al/ha) | SORHA phytotoxicity rating ([25]; Rate 500 g al/ha)
85: IPOHE phytotoxicity rating ([17]; Rate 500 g al/ha)
100: crop damage rating SOY ([7]; rate 500 g ai/ha) | phytotoxicity rating CASOB ([12]; rate 63 g ai/ha) | phytotoxicity rating ABUTH ([13]; rate 63 g ai/ha) | phytotoxicity rating ABUTH ([13]; rate 500 g ai/ha) | ECHCG phytotoxicity rating ([18]; Rate 500 g al/ha) | AMBEL phytotoxicity rating ([19]; Rate 125 g al/ha) | AMBEL phytotoxicity rating ([19]; Rate 500 g al/ha) | AMARE phytotoxicity rating ([20]; Rate 125 g al/ha) | AMARE phytotoxicity rating ([20]; Rate 500 g al/ha) | CHEAL phytotoxicity rating ([21]; Rate 125 g al/ha) | CHEAL phytotoxicity rating ([21]; Rate 500 g al/ha) | ABUTH phytotoxicity rating ([23]; Rate 125 g al/ha) | ABUTH phytotoxicity rating ([23]; Rate 500 g al/ha) | DIGSA phytotoxicity rating ([24]; Rate 500 g al/ha) | SETVI phytotoxicity rating ([26]; Rate 125 g al/ha) | SETVI phytotoxicity rating ([26]; Rate 500 g al/ha)
20: SORHA phytotoxicity rating ([25]; Rate 125 g al/ha)
40: crop damage rating CORN ([2]; rate 500 g ai/ha)
25: CORN crop damage rating ([6]; Rate 500 g al/ha)
0: crop damage rating RICE ([1]; rate 63 g ai/ha) | crop damage rating CORN ([2]; rate 63 g ai/ha) | CORN crop damage rating ([6]; Rate 125 g al/ha) | phytotoxicity rating ECHCG ([9]; rate 63 g ai/ha) | phytotoxicity rating DIGSA ([14]; rate 63 g ai/ha) | phytotoxicity rating DIGSA ([14]; rate 500 g ai/ha) | phytotoxicity rating SORHA ([15]; rate 63 g ai/ha) | phytotoxicity rating SETVI ([16]; rate 63 g ai/ha) | CASOB phytotoxicity rating ([22]; Rate 125 g al/ha)
30: phytotoxicity rating AMBEL ([4]; rate 63 g ai/ha) | phytotoxicity rating SETVI ([16]; rate 500 g ai/ha) | IPOHE phytotoxicity rating ([17]; Rate 125 g al/ha) | ECHCG phytotoxicity rating ([18]; Rate 125 g al/ha)
90: crop damage rating SOY ([7]; rate 63 g ai/ha) | phytotoxicity rating AMARE ([10]; rate 63 g ai/ha) | phytotoxicity rating CHEAL ([11]; rate 63 g ai/ha) | phytotoxicity rating CHEAL ([11]; rate 500 g ai/ha)
